Legend:
Human FAAH = molecular target: T1, Human FAAH (Homo sapiens, UniProt O00519); assay: FAAH assay (glutamate dehydrogenase-coupled, oleamide substrate, absorbance at 340 nm); format: biochemical; conditions: irreversible inhibition, 1-4 nM FAAH, pH 7.4, 30° C., 90 min, read-out: hFAAH kinact/Ki
T1 construct: made in house
T1 sequence (O00519 1-579): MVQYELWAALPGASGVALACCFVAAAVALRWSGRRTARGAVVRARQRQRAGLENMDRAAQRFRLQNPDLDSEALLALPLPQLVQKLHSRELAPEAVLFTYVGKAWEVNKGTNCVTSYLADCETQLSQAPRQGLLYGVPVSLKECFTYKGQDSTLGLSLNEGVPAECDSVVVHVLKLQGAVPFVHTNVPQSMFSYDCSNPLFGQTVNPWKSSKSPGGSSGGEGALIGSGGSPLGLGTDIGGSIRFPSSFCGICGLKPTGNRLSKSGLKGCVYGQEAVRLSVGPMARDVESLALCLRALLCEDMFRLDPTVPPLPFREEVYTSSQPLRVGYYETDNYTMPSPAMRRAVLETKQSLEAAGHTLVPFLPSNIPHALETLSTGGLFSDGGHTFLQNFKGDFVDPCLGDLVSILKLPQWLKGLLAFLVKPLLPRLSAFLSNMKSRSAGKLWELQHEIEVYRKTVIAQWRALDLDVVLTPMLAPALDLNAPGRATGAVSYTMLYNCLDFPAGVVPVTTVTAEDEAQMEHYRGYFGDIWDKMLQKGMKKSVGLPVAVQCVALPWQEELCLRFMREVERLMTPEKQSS

For `Cc1ccc(NC(=O)N2CCC(=C(F)c3cccc(Oc4ccc(C(F)(F)F)cn4)c3)CC2)cn1` [Example 70, 4-(fluoro(3-(5-(trifluoromethyl)pyridin-2-yloxy)phenyl)methylene)-N-(6-methylpyridin-3-yl)piperidine-1-carboxamide], the kinact/KI (Human FAAH) was 4590 M⁻¹ s⁻¹ and the melting point was 158 to 160 °C.

From patent publication US8044052B2, “Biaryl ether urea compounds” (Pfizer Inc., priority 2006, dated 2011)
